Patent US8614253B2, “IRE-1α inhibitors” (MannKind Corporation, priority 2007, dated 2013)
Blank lines part the entries; values can stand above or below the molecule they belong to.

Columns and labels:
IRE-1α [1] = target: T1, IRE-1α (Homo sapiens (Human), UniProt O75460); assay: IRE-1α assay: in vitro cleavage of mini-XBP-1 mRNA stem-loop substrate by GST-IRE-1α; type: biochemical
Procedure: A fusion protein comprising glutathione S transferase (GST) and human IRE-1α (GST-IRE-1α) was obtained from a 500 ml baculovirus-infected insect cell culture and used to measure IRE-1α activity in vitro.
Five μl of a reaction mixture comprising 1× reaction buffer (5× reaction buffer is 100 mM Hepes pH 7.5, 250 mM KOAc, 2.5 mM MgCl2), 3 mM DTT, and 0.4% polyethylene glycol water were added to each well of 384 well plates. Twenty-five nanoliters of a 1 mM test compound solution were added to test wells. […] Negative control wells contained only reaction mixture and test compound.
The plates were again spun at 1200 rpm for 30 seconds.
The plates were covered with lids and incubated for one hour at 30° C. The plates were then transferred to an ACQUEST™ microplate reader. Data was analyzed using data analysis software, and the percent activity of IRE-1α was calculated.
Target sequence in this assay (O75460 19-977): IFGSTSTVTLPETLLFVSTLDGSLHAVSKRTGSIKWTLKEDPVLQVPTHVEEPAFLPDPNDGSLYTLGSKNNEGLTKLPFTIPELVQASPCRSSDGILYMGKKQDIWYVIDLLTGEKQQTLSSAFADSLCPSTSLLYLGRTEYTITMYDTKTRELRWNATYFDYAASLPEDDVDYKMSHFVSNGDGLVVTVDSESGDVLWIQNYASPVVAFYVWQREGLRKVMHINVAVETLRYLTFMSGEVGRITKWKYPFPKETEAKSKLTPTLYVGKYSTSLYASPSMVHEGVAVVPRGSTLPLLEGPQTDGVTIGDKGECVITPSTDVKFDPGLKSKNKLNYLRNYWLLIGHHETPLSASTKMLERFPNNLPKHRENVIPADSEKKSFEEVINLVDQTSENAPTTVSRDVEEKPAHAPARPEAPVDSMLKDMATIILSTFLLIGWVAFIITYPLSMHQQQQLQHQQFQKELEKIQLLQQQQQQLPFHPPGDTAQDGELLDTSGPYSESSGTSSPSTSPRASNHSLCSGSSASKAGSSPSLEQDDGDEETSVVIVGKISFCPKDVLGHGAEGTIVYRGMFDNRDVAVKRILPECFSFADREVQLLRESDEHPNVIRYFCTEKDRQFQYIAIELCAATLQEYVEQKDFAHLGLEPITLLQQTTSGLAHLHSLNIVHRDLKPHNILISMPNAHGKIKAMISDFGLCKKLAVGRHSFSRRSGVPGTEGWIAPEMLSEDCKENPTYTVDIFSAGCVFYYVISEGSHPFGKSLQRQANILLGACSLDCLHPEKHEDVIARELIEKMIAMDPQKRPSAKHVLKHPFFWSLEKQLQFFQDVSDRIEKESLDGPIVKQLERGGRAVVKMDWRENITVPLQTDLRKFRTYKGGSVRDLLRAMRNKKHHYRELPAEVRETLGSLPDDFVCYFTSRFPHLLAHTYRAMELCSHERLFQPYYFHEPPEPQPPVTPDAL

[2] = test system: RPMI-8226 multiple myeloma cells; assay: Proliferation of multiple myeloma cells (CellTiter-Glo); type: cell-based, human; settings: RPMI8226 cells, 24 hours, FIG. 5
Procedure: FIG. 5. Graph showing inhibition of proliferation of multiple myeloma cells by IRE-1α inhibitor 11-28 (Example 11). RPMI-8226 multiple myeloma cells were seeded at 20,000 cells per well in RPMI culture medium containing 1% FBS and the required antibiotics. The plate was incubated overnight at 37° C., 95% air, 5% CO2. The following day, compound 11-28 or medium alone was added to wells, resulting in a final volume of 100 μl per well. The compound concentration ranged from 100 μM to 0 μM, with compounds diluted by a factor of 4. After addition of compound, the plate was incubated at 37° C., 95% air, 5% CO2 for 24 hours. Cell proliferation was measured using the CellTiter-Glo assay (Promega), following the manufacturer's instructions.
Proliferation assays using myeloma cell lines (U266, RPMI8226 and MM.1s) are used to determine ED50. Compounds are used as single agents and in combination with other chemotherapeutic drugs.

primary murine B cells = assay: IgM secretion after LPS stimulation of primary murine B cells; type: cell-based, mouse
Procedure: FIG. 9. Inhibition of IgM secretion after LPS stimulation of primary murine B cells with selected IRE-1α inhibitors. […] However, compounds had little effect when at added after 40 hours of stimulation; only slight inhibition at the highest dose. Methods were performed as previously described by Iwakoshi et al., Nature 4, 321-29, 2003 for B cell stimulation, plasma cell differentiation and IgM secretion. Primary B cells were Isolated from BALB/c splenocytes using mouse CD43 Microbeads (Miltenyi cat# 130-049-801) with 1×10^6 cells per treatment. Purified B cells were stimulated in B Cell Media at a final density of 1×10^6/ml/well in 24-well plates with 20 μg/ml LPS (Sigma cat# L4391). IRE-1α inhibitor compound 17-1 was added at various concentrations (50 μM, 10 μM, 2 μM, 0.4 μM and 0.08 μM) at specified time points (t=0, t=24 hr, t=40 hr, etc.) Cells were incubated for 48 hr at 37° C. At end of the incubation, cells were spun in a plate at 1500 rpm/3 min. Supernatants were collected for quantitation for IgM secretion using a mouse IgM ELISA Kit (Bethyl Labs cat# E90-101). B Cell medium included RPMI+10% FBS supplemented with NEAA, HEPES, NaPyr, PSQ, and β-mercaptoethanol.

IRE-1α [3] = target: T1, IRE-1α; assay: Phosphorylated IRE-1α and XBP1-splicing in RPMI8226 cells (Western blot, agarose gel); type: cell-based; settings: 24 hour treatment, FIG. 6
Excerpt: FIG. 6. […] The numbers indicate the concentration of bortezomib in nM.

[4] = test system: human myeloma RPMI8226 tumor xenografts; assay: RPMI8226 myeloma tumor xenograft in SCID mice; type: in vivo, mouse; settings: 0.75 mg/kg IV twice weekly

IC50 (IRE-1α [1]; values in text): 30 nM
Compound: COc1ccc(Br)c(C=O)c1O [6-bromo o-vanillin]

Compound: COc1cc(-c2cccs2)cc(C=O)c1O [11-28]
inhibition of proliferation [2]: inhibits the proliferation of RPMI8226 myeloma cells

Compound: CN(C)C(=O)c1ccc(-c2ccc3c(C=O)c(O)ccc3c2)cc1 [17-1, 4-(5-formyl-6-hydroxynaphthalen-2-yl)-N,N-dimethylbenzamide]
IgM secretion (primary murine B cells; added after 40 hours of stimulation): little effect | IgM secretion (primary murine B cells; added at beginning of stimulation and again at 24 hours): blocked IgM secretion at all doses tested down to 100 nM

Compound: CC(C)C[C@H](NC(=O)[C@H](Cc1ccccc1)NC(=O)c1cnccn1)B(O)O [bortezomib, [(1R)-3-methyl-1-[[(2S)-1-oxo-3-phenyl-2-[(pyrazinylcarbonyl)amino]propyl]amino]butyl]boronic acid]
levels of phosphorylated IRE-1α and XBP1-splicing (IRE-1α [3]): increases the levels of phosphorylated IRE-1α and XBP1-splicing | tumor growth [4]: suppression of tumor growth

IC50 (IRE-1α [1]; Table 3): 80 nM
Compound: COc1ccc(Br)c(C=O)c1O [drawing 180]

IC50 (IRE-1α [1]; Table 3): 2370 nM
Compound: COc1cccc(C=O)c1O [drawing 230]

IC50 (IRE-1α [1]; Table 3): 5750 nM
Compound: COc1cccc(C=O)c1O [drawing 238]

IC50 (IRE-1α [1]; values in text): 3000 nM
Compound: COc1cccc(C=O)c1O [o-vanillin, 2-hydroxy-3-methoxybenzaldehyde]
